Patent publication EP0345629A2, “Condensed diazepinones, process for their preparation and medicaments containing them” (Dr. Karl Thomae GmbH, priority 1988, dated 1989)
Read-outs that look alike come from different tables or passages of the source.

Key:
vagale Bradykardie (M2) = assay: M1/M2 selectivity in the rat: inhibition of bradycardia evoked by electrical vagus stimulation; type: in vivo, männliche THOM-Ratten; settings: iv; for ED50: 5 min
From the text: (§1) 1. M1-/M2-Selektivität an der Ratte
(§2) Die Dosis der Substanzen, die entweder die vagale Bradykardie (M2) oder den Blutdruckanstieg (M,) um 50% verminderte, wurde graphisch ermittelt. Ergebnisse siehe Tabelle 11.

[1] = tested on: durch McN-A-343 verursachte Blutdruckanstieg (M,); assay: M1/M2 selectivity in the rat: inhibition of blood pressure rise caused by McN-A-343; type: in vivo, männliche THOM-Ratten; settings: for ED50: iv, 5 min, rat, i.v., 5 min after injection, dose reducing the blood pressure rise after 0,3 mg/kg McN-A-343 i.v. (M1) by 50 %, read-out: -log ED50 Blutdruck (converted)
From the text: as §1, §2

[2] = tested on: Acetylcholinwirkung auf Herzfrequenz; assay: Inhibition of the acetylcholine effect on heart rate in the anaesthetised guinea pig; type: in vivo, Meerschweinchen; settings: for ED50: Cavia porcellus, 5 min, anaesthetised guinea pig, 10 µg/kg Acetylcholin 5 min after test substance, heart rate (ECG)
Procedure: (§3) 3. Hemmung der Acetylcholinwirkung auf Blase, Bronchien und Herzfrequenz des Meerschweinchens
(§4) Am narkotisierten Meerschweinchen wurden 5 Minuten nach Gabe der Prüfsubstanz 10 µg/kg Acetylcholin sowohl intravenös als auch gleichzeitig intraarteriell injiziert. Dabei wurde die Herzfrequenz durch extrakorporale Ableitung des EKG, der Ausatemwiderstand nach Konzett-Rößler und die Kontraktion der freigelegten Harnblase direkt registriert. Für die Hemmung der Acetylcholinwirkung an den untersuchten Organen wurden Dosis-Wirkungskurven aufgenommen und daraus -log EDso-Werte bestimmt. Ergebnisse siehe Tabelle III.

[3] = tested on: Acetylcholinwirkung auf Blase; assay: Inhibition of the acetylcholine effect on bladder contraction in the anaesthetised guinea pig; type: in vivo, Meerschweinchen; settings: for ED50: Cavia porcellus, 5 min, anaesthetised guinea pig, 10 µg/kg Acetylcholin 5 min after test substance, bladder contraction, read-out: -log ED50 Blase (converted)
Procedure: as §3, §4

[4] = tested on: Acetylcholinwirkung auf Bronchien; assay: Inhibition of the acetylcholine effect on bronchi (expiratory resistance, Konzett-Rößler) in the anaesthetised guinea pig; type: in vivo, Meerschweinchen; settings: for ED50: Cavia porcellus, 5 min, anaesthetised guinea pig, 10 µg/kg Acetylcholin 5 min after test substance, expiratory resistance, read-out: -log ED50 Bronchien (converted)
Procedure: as §3, §4

Speichelsekretion = assay: Inhibition of pilocarpine-induced salivary secretion in the rat; type: in vivo, männliche THOM-Ratten; settings: iv; urethane-anaesthetised rat, i.v.; 2 mg/kg Pilocarpin s.c.; dose reducing saliva volume by 50 %; read-out: -log ED50 Salivationshemmung (converted)
Procedure: 2. Speichelsekretionshemmende Wirkung an der Ratte
Nach Lavy und Mulder (Arch. int. Pharmacodyn. 178, 437-445, (1969)) erhielten mit 1,2 g/kg Urethan narkotisierte männliche THOM-Ratten steigende Dosen der Substanz i.v.. Die Speichelsekretion wurde durch s.c. Gabe von 2 mg/kg Pilocarpin ausgelöst. Der Speichel wurde mit Fließpapier aufgesaugt, die von ihm eingenommene Fläche alle 5 Minuten planimetrisch bestimmt. Die Dosis der Substanz, die das Speichelvolumen um 50% verminderte, wurde graphisch ermittelt. Ergebnisse siehe Tabelle 11.

[5] = Solubility in water (remark in the synthesis example); type: physicochemical
[6] = rat, i.v., 5 min after injection, dose reducing vagal bradycardia (M2) by 50 %, read-out: -log ED50 Herz (converted)

| Löslichkeit in Wasser [5] | SMILES | ED50 (vagale Bradykardie (M2); [6]) | ED50 [1] | ED50 [2] | ED50 (Speichelsekretion) | ED50 [3] | ED50 [4] | also measured |
| --- | --- | --- | --- | --- | --- | --- | --- | --- |
| – | CN1C2CCC1CC(OC(=O)C(CO)c1ccccc1)C2 (racemic) [F, Atropin, reference compound] | – | – | – | – | – | – | -log ED50 Herz (vagale Bradykardie (M2); in vivo): 7,94 Mkg^-1; -log ED50 Blutdruck ([1]; in vivo): 7,34 Mkg^-1; -log ED50 Herz ([2]; in vivo): 7,70 Molkg^-1; -log ED50 Blase ([3]; in vivo): 7,03 Molkg^-1; -log ED50 Bronchien ([4]; in vivo): 7,96 Molkg^-1 |
| leicht löslich in Wasser | CCN(CC)CC1COCCN1CCCC(=O)N1c2ccccc2C(=O)Nc2cccnc21 (stereo not drawn) [A, 11-[4-[3-[(Diethylamino)methyl]-4-morpholinyl]-1-oxobutyl]-5,11-dihydro-6H-pyrido[2,3-b][1,4]-benzodiazepin-6-on] | 0.0513 µmol/kg | 0.55 µmol/kg | 0.0282 µmol/kg | 1.1 µmol/kg | 1 µmol/kg | 0.0708 µmol/kg | – |
| – | CCN(CC)CC1CCCCN1CCCC(=O)N1c2cc(C)ccc2C(=O)Nc2cccnc21 (stereo not drawn) [B, 11-[4-[2-[(Diethylamino)methyl]-1-piperidinyl]-1-oxobutyl]-5,11-dihydro-9-methyl-6H-pyrido[2,3-b][1,4]benzodiazepin-6-on] | 0.0617 µmol/kg | 0.501 µmol/kg | 0.0708 µmol/kg | 1.12 µmol/kg | 0.759 µmol/kg | 0.151 µmol/kg | – |
| löslich in Wasser | CN(C)CCC1CCCCN1CCCC(=O)N1c2ccccc2C(=O)Nc2cccnc21 (stereo not drawn) [Beispiel 4, 5,11-Dihydro-11-[4-[2-[2-(dimethylamino)ethyl]-1-piperidinyl]-1-oxobutyl]-6H-pyrido[2,3-b][1,4]benzodiazepin-6-on] | – | – | – | – | – | – | – |
| in Wasser schwer lösliches | CCN(CC)CC1CCCCN1CCCC(=O)N1c2ccc(Br)cc2C(=O)Nc2cccnc21 (stereo not drawn) [Beispiel 7, 8-Brom-11-[4-[2-[(diethylamirio)methyl]-1-piperidinyl]-1-oxobutyl]-5,11-dihydro-6H-pyrido[2,3-b][1,4]-benzodiazepin-6-on] | – | – | – | – | – | – | – |
| – | O=C1Nc2cccnc2N(C(=O)CCCN2CCCCC2CN2CCCC2)c2ccccc21 (stereo not drawn) [C, 5, 11-Dihydro-11-[4-[2-[(1-pyrrolidinyl)methyl]-1-piperidinyl]-1-oxobutyl]-6H-pyrido[2,3-b][1,4]-benzodiazepin-6-on] | 0.0468 µmol/kg | 0.219 µmol/kg | 0.0275 µmol/kg | 1.66 µmol/kg | 0.316 µmol/kg | 0.0513 µmol/kg | – |
| – | CCN(CC)CC1CCCCN1CC(=O)N1c2ccccc2C(=O)Nc2cccnc21 (stereo not drawn) [D, 11-[[2-[(Diethylamino)methyl]-1-piperidinyl]acetyl]-5,11-dihydro-6H-pyrido[2,3-b][1,4]-benzodiazepin-6-on, reference compound] | – | 2.34 µmol/kg | – | 10 µmol/kg | – | – | ED50 (vagale Bradykardie (M2); Rattus norvegicus, read-out: -log ED50 Herz): 0.38 µmol/kg |
| – | CN1CCN(CC(=O)N2c3ccccc3C(=O)Nc3cccnc32)CC1 [E, 5,11-Dihydro-11-[(4-methyl-1-piperazinyl)acetyl]-6H-pyrido[2,3-b][1,4]benzodiazepin-6-on, reference compound] | – | – | – | 0.603 µmol/kg | – | – | – |
